Assay results reported in patent publication US20240239816A1, “BORONO-PHENYLALANINE DERIVATIVE” (STELLA PHARMA CORPORATION, priority 2021, published 2024).

What was measured:
[1] = Single dose toxicity test; type: in vivo; details: single tail vein injection, 250, 500 and 1000 mg/kg, 5 animals per group, observation period 8 days
Description: In a beaker, 17.6 mL of 1 mol/L NaOH was put, and 24 mL of water for injection was further added and mixed. To this was added 2.52 g of D-sorbitol. After confirming complete dissolution, 17.1 mL of 1 mol/L hydrochloric acid was added to adjust the pH to 7.4 to 7.8. The mixture was transferred to a measuring cylinder, the beaker was washed with water for injection, and the washing liquid was transferred to the measuring cylinder. This operation was repeated as much as possible, and the volume of the liquid in the measuring cylinder was increased to 80 mL while the beaker was washed. The mixture was filtration-sterilized with a filter (Millex GV, pore size: 0.22 μm, Merck, sterilized disposable product), affording a 3.15% D-sorbitol solution.
On the other hand, 10.1 mL of a 1 mol/L aqueous sodium hydroxide solution was put in a beaker, and 13.8 mL of water for injection was further added and mixed. To this were added 2.30 g of test substance and 1.45 g of D-sorbitol. After confirming complete dissolution, 1.36 mL of 1 mol/L hydrochloric acid was added to adjust the pH to 7.4 to 7.8. The mixture was transferred to a measuring cylinder, the beaker was washed with water for injection, and the washing liquid was transferred to the measuring cylinder. […]

[2] = tested on: human LAT1 and LAT2 highly expressing HEK 293 cell lines; assay: Evaluation of LAT1 and LAT2-selective uptake; type: cell-based; details: (uptake in LAT1 cells / L-BPA uptake in LAT1 cells)/(uptake in LAT2 cells / L-BPA uptake in LAT2 cells); substrate concentration 0.1 mM; relative to L-BPA on the same day
Description: HEK 293 cells that stably highly express human LAT1 and LAT2 respectively were prepared according to the method described in the article of Khunweeraphong, N et al. (Journal of Pharmacology Science, 2012, vol. 119, pp 368-380). A shuttle vector DNA (LAT1: EX-H 4509-M02, LAT2: EX-U0514-M02, manufactured by GeneCopoeia) having ampicillin and neomycin resistance markers and having full-length cDNA of human LAT1 or LAT2 inserted under the promoter of cytomegalovirus (CMV) was constructed. This vector was transfected into HEK 293 cells by a method using Lipofectamine (registered trademark) 2000 (Invitrogen) in accordance with the manufacturer's instructions. Thereafter, the stably expressing cell clone of the transgene was selected by the limiting dilution method in the presence of 0.9 mg/mL Geneticin (registered trademark), and a cell clone in which the uptake of L-boronophenylalanine (L-BPA) was enhanced by about 2 to about 5 times as compared with HEK 293 cells before transfection was obtained. This cell was passaged and used for evaluation of LAT1 and LAT2-selective uptake.
As a method for evaluating cell uptake, the same method as in the article of Khunweeraphong, N et al. (Journal of Pharmacology Science, 2012, vol. 119, pp 368-380) was used. Each of the cells obtained in (1) was used for evaluation. Radioactive isotopes were not used, a substrate concentration was 0.1 mM, and 2 mM BCH (2-amino-2-norbonanecarboxylic acid) was used as an LAT1 and LAT2 inhibitor. The reacted cells were collected with 0.05% Tween 20 and the concentration of the 4-borono-phenylalanine derivative in the cell fluid was determined. Quantification of the 4-borono-phenylalanine derivative in cells was performed in accordance with the method described in the article of Hattori, Y, et al. (Sensors 2017, 17, 2436), using 2-(2-hydroxyphenyl)pyridine (boron sensor 5) as a boron sensor. In the evaluation of cell uptake, in consideration of variations between experiments, the cell uptake was evaluated as a value (LAT1 selectivity) relative to the uptake of L-BPA as a comparative object performed on the same day.
LAT1 selectivity=(quantitative value of uptake of the compound in LAT1 cells/quantitative value of uptake of control L-BPA in LAT1 cells)/(quantitative value of uptake of the compound in LAT2 cells/quantitative value of uptake of control L-BPA in LAT2 cells)

| SMILES | change due to administration of the test substance (single dose toxicity) [1] | LAT1 selectivity [2] |
| --- | --- | --- |
| C[C@](N)(Cc1ccc(B(O)O)cc1F)C(=O)O [Example 1, (S)-2-amino-3-(4-borono-2-fluorophenyl)-2-methylpropanoic acid] | no serious change due to the administration of the test substance was observed in any of the administration groups | twice or more |
| C[C@@](N)(Cc1ccc(B(O)O)cc1F)C(=O)O [Example 2, (R)-2-Amino-3-(4-borono-2-fluorophenyl)-2-methylpropanoic acid] | – | twice or more |
| Cc1cc(B(O)O)ccc1C[C@](C)(N)C(=O)O [Example 3, (S)-2-Amino-3-(4-borono-2-methylphenyl)-2-methylpropanoic acid] | – | twice or more |
| Cc1cc(B(O)O)ccc1C[C@@](C)(N)C(=O)O [Example 4, (R)-2-Amino-3-(4-borono-2-methylphenyl)-2-methylpropanoic acid] | – | twice or more |
| C[C@](N)(Cc1ccc(B(O)O)cc1C(F)(F)F)C(=O)O [Example 5, (S)-2-Amino-3-(4-borono-2-(trifluoromethyl)phenyl)-2-methylpropanoic acid] | – | twice or more |
| C[C@@](N)(Cc1ccc(B(O)O)cc1C(F)(F)F)C(=O)O [Example 6, (R)-2-Amino-3-(4-borono-2-(trifluoromethyl)phenyl)-2-methylpropanoic acid] | – | twice or more |
| COc1cc(B(O)O)ccc1C[C@](C)(N)C(=O)O [Example 7, (S)-2-Amino-3-(4-borono-2-methoxyphenyl)-2-methylpropanoic acid] | – | twice or more |
| C[C@](N)(Cc1ccc(B(O)O)cc1Cl)C(=O)O [Example 9, (S)-2-Amino-3-(4-borono-2-chlorophenyl)-2-methylpropanoic acid] | no serious change due to the administration of the test substance was observed in any of the administration groups | twice or more |
| C[C@](N)(Cc1c(F)cc(B(O)O)cc1F)C(=O)O [Example 11, (S)-2-Amino-3-(4-borono-2,6-difluorophenyl)-2-methylpropanoic acid] | – | twice or more |
| C[C@](N)(Cc1cc(Cl)c(B(O)O)cc1F)C(=O)O [Example 13, (S)-2-Amino-3-(4-borono-5-chloro-2-fluorophenyl)-2-methylpropanoic acid] | – | twice or more |
| C[C@](N)(Cc1ccc(B(O)O)c(F)c1F)C(=O)O [Example 14, (S)-2-Amino-3-(4-borono-2,3-difluorophenyl)-2-methylpropanoic acid] | – | twice or more |
| C[C@](N)(Cc1ccc(B(O)O)c(F)c1)C(=O)O [Example 15, (S)-2-Amino-3-(4-borono-3-fluorophenyl)-2-methylpropanoic acid] | – | twice or more |
| C[C@@](N)(Cc1ccc(B(O)O)c(F)c1)C(=O)O [Example 16, (R)-2-Amino-3-(4-borono-3-fluorophenyl)-2-methylpropanoic acid] | – | twice or more |
| Cc1cc(C[C@](C)(N)C(=O)O)ccc1B(O)O [Example 17, (S)-2-Amino-3-(4-borono-3-methylphenyl)-2-methylpropanoic acid] | – | twice or more |
| C[C@](N)(Cc1cc(F)c(B(O)O)cc1Cl)C(=O)O [Example 29, (S)-2-Amino-3-(4-borono-2-chloro-5-fluorophenyl)-2-methylpropanoic acid] | – | twice or more |
| CSc1cc(B(O)O)ccc1C[C@](C)(N)C(=O)O [Example 34, (S)-2-Amino-3-(4-borono-2-(methylthio)phenyl)-2-methylpropanoic acid] | – | twice or more |
| C[C@](N)(Cc1ccc(B(O)O)cc1C(F)F)C(=O)O [Example 35, (S)-2-Amino-3-(4-borono-2-(difluoromethyl)phenyl)-2-methylpropanoic acid] | – | twice or more |
| C[C@@](N)(Cc1ccc(B(O)O)cc1C(F)F)C(=O)O [Example 36, (R)-2-Amino-3-(4-borono-2-(difluoromethyl)phenyl)-2-methylpropanoic acid] | – | twice or more |
| C[C@](N)(Cc1ccc(B(O)O)c(Cl)c1)C(=O)O [Example 37, (S)-2-Amino-3-(4-borono-3-chlorophenyl)-2-methylpropanoic acid] | – | twice or more |
| N[C@@H](Cc1ccc(B(O)O)cn1)C(=O)O [Example 44, (S)-2-Amino-3-(5-boronopyridin-2-yl)propanoic acid] | – | twice or more |
| Cc1cc(B(O)O)cnc1C[C@H](N)C(=O)O [Example 49, (S)-2-Amino-3-(5-borono-3-methylpyridin-2-yl)propanoic acid] | – | twice or more |
| N[C@@H](Cc1ncc(B(O)O)cc1Cl)C(=O)O [Example 50, (S)-2-Amino-3-(5-borono-3-chloropyridin-2-yl)propanoic acid] | – | twice or more |
| Cc1cc(C[C@H](N)C(=O)O)ncc1B(O)O [Example 51, (S)-2-Amino-3-(5-borono-4-methylpyridin-2-yl)propanoic acid] | – | twice or more |
